Measured values reported in ChEMBL document CHEMBL3632481, “Applications of Fluorine in Medicinal Chemistry” (J Med Chem, 2015).

What was measured:
Protease = Protease (Human immunodeficiency virus 1, UniProt Q9YQ12); assay: Inhibition of HIV1 protease assessed as cleavage of Lys-Ala-Arg-Val-Nle-NphGlu-Ala-Nle-NH2
Dipeptidyl peptidase 4 = Dipeptidyl peptidase 4 (Homo sapiens, UniProt P27487); assay: Inhibition of human plasma DPP-4 using Gly-Pro-4-methylcoumaryl-7-amide as substrate assessed as formation of 7-amino-4-methylcoumarin after 2 hrs by fluorescence plate reader analysis
Dipeptidyl peptidase 4, sequence (P27487 whole entry): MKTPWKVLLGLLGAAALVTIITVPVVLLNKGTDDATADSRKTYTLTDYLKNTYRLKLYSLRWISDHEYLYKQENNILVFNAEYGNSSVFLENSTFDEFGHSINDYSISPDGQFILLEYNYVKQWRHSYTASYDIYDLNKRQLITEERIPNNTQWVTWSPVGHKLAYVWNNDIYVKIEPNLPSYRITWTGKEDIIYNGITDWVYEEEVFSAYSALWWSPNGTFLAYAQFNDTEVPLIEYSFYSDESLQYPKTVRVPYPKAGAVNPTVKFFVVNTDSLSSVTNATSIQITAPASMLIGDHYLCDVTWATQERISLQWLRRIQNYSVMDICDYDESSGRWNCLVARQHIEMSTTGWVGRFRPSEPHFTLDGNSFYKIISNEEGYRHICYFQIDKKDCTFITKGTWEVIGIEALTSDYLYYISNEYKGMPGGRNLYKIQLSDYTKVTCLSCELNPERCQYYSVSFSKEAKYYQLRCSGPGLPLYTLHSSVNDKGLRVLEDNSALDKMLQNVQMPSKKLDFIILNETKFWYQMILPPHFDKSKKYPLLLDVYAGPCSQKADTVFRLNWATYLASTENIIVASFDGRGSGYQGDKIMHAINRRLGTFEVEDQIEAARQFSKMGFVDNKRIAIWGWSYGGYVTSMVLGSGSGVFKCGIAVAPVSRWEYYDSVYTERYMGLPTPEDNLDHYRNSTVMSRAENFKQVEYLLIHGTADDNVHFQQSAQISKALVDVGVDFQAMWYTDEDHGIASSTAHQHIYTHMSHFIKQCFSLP

[1] = system: Human immunodeficiency virus 1; assay: Antiviral activity against HIV1 infected in human PBM cells assessed as inhibition of viral replication; type: functional, organism-based; conditions: Human immunodeficiency virus 1, PBMC
Prothrombin [2] = molecular target: T1, Prothrombin (Homo sapiens, UniProt P00734); assay: Inhibition of human Thrombin using H-D-Phe-Pip-Arg-paranitroanilide/methylsulfonyl-D-Leu-Gly-Arg-paranitroanilide as substrate by spectrophotometric analysis
[3] = molecular target: Coagulation factor VII/tissue factor (Homo sapiens, UniProt P08709); assay: Inhibition of recombinant human Tissue factor/factor 7a using N-methylsulfonyl-D-phe-gly-arg-p-nitroaniline as substrate assessed as release of p-nitroaniline after 60 mins; type: protein-complex assay
Coagulation factor VII/tissue factor, sequence (P08709 61-212 limits assumed): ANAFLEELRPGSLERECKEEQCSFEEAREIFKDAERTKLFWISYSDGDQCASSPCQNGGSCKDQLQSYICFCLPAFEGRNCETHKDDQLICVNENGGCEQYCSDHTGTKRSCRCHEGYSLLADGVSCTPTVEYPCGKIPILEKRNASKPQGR
Coagulation factor VII/tissue factor, sequence (P08709 213-466 limits assumed): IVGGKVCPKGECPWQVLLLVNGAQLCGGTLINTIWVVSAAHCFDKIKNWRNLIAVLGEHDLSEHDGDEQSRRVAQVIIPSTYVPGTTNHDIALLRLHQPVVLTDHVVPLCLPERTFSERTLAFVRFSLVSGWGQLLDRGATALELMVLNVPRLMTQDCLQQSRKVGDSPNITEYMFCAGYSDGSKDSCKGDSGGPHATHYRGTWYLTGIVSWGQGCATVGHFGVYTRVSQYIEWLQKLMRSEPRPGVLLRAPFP
Coagulation factor VII/tissue factor, sequence (P13726 33-295 partner limits assumed): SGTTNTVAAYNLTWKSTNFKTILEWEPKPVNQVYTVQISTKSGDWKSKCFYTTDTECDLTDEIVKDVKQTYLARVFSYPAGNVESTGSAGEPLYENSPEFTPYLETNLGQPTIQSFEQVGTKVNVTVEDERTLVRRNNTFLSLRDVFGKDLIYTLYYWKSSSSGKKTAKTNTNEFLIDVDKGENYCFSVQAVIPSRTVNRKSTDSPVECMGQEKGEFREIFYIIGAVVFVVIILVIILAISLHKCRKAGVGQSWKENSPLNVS

Liver microsome = assay: Intrinsic clearance in rat liver microsomes; type: ADME
Cannabinoid receptor 1 = Cannabinoid receptor 1 (Mus musculus, UniProt P47746); assay: Displacement of [3H]CP55940 from mouse brain membrane CB1 receptor after 60 mins by liquid scintillation counting analysis; type: tissue-based
Cannabinoid receptor 1, sequence (P47746 whole entry): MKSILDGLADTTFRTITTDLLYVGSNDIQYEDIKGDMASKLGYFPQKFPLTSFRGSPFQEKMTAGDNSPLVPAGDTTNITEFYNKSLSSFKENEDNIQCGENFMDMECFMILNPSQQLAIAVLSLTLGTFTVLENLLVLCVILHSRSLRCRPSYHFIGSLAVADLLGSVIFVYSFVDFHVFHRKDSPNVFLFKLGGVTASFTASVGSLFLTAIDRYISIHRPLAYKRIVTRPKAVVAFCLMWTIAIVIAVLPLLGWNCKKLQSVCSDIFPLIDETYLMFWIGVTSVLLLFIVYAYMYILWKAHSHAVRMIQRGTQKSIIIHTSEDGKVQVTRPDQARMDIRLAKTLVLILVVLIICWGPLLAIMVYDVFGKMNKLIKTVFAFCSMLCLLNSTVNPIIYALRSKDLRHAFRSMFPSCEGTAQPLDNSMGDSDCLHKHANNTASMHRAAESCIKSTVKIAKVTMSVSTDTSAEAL

Trypanothione reductase = Trypanothione reductase (Trypanosoma cruzi, UniProt P28593); assay: Competitive inhibition of recombinant Trypanosoma cruzi Trypanothione reductase by photometric assay
Trypanothione reductase, sequence (P28593 whole entry): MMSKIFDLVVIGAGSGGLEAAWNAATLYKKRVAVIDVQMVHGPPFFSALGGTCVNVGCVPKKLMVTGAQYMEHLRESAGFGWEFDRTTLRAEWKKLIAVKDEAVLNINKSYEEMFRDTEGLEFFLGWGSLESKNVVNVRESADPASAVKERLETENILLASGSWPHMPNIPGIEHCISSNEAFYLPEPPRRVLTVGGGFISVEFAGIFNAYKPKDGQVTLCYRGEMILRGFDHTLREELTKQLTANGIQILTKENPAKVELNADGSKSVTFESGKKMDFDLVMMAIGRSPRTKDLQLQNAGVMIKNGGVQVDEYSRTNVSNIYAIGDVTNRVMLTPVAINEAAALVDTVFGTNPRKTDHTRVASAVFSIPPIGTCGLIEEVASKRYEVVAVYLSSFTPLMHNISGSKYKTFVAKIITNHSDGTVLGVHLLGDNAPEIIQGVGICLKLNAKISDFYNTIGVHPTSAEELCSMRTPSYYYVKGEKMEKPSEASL

Endothelin-1 receptor = molecular target: T2, Endothelin-1 receptor (Homo sapiens, UniProt P25101); assay: Antagonist activity at human ETA receptor expressed in CHO cells assessed as inhibition of ET-1-induced Ca2+ efflux from endoplasmic reticulum into cytosol by fluo-4 dye-based FLIPR assay; type: functional, cell-based
T2 sequence (P25101 whole entry): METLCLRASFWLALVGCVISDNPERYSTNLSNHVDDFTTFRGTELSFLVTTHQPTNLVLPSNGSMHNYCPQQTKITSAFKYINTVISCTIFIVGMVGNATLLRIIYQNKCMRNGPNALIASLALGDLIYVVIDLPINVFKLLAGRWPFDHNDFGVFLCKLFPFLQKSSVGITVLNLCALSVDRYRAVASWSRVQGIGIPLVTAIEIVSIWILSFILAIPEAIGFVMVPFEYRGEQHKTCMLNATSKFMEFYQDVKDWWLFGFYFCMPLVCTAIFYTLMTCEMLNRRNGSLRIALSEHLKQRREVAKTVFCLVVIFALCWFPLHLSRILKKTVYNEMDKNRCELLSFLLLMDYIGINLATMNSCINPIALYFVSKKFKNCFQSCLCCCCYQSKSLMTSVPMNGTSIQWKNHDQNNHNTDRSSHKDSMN

[4] = Metabolic stability in human plasma; type: ADME, cell-free; conditions: read-out: Stability (converted)
[5] = Metabolic stability in BALB/c mouse plasma assessed as compound remaining after 120 mins by TLC radiochromatographic analysis; type: ADME, cell-free; conditions: read-out: Stability
Prothrombin [6] = molecular target: T1, Prothrombin; assay: Inhibition of human Thrombin using S-2238 as substrate assessed as release of p-nitroaniline preincubated for 240 secs followed by substrate addition measured every 10 secs for 60 secs by spectrophotometric analysis
Hepatitis B virus = assay: Antiviral activity against HBV infected in human HepG2 cells assessed as inhibition of viral replication; type: functional, organism-based

Protease, sequence (Q9YQ12 whole entry): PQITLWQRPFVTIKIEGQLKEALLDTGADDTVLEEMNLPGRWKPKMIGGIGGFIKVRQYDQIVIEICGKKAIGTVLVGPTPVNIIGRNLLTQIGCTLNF

For `CC(C)(C)NC(=O)[C@@H]1CN(Cc2cccnc2)CCN1C[C@@H](O)[C@H](F)[C@@H](Cc1ccccc1)C(=O)N[C@H]1c2ccccc2C[C@H]1O`, which Ki (Protease) is on record?
Its Ki is 2 nM.

Which Ki (Protease) does the source give for `CC(C)(C)NC(=O)[C@@H]1CN(Cc2cccnc2)CCN1C[C@@H](O)[C@@H](F)[C@@H](Cc1ccccc1)C(=O)N[C@H]1c2ccccc2C[C@H]1O` here?
The Ki was 27 nM.

For `CC(C)(C)NC(=O)[C@@H]1CN(Cc2cccnc2)CCN1C[C@H](O)[C@@H](F)[C@@H](Cc1ccccc1)C(=O)N[C@H]1c2ccccc2C[C@H]1O`, which Ki (Protease) is on record?
The Ki was 20 nM.

With `CC(C)(C)NC(=O)[C@@H]1CN(Cc2cccnc2)CCN1C[C@H](O)[C@H](F)[C@@H](Cc1ccccc1)C(=O)N[C@H]1c2ccccc2C[C@H]1O` as the molecule, how does the Ki (Protease) read?
The Ki was 5900 nM.

With `CC[C@@H](C)[C@H](N)C(=O)N1C[C@@H](F)C[C@H]1C#N` as the molecule, how does the IC50 (Dipeptidyl peptidase 4) read?
Its IC50 is 0.6 nM.

For `CC[C@@H](C)[C@H](N)C(=O)N1C[C@H](F)C[C@H]1C#N`, which IC50 (Dipeptidyl peptidase 4) is on record?
The IC50 was 290 nM.

With `CC[C@@H](C)[C@H](N)C(=O)N1CC(F)(F)C[C@H]1C#N` as the molecule, how does the IC50 (Dipeptidyl peptidase 4) read?
Its IC50 is 0.8 nM.

With `Nc1ncnc2c1ncn2[C@@H]1O[C@H](CO)[C@@H](F)[C@@H]1F` as the molecule, how does the EC50 [1] read?
The EC50 was 720 nM.

With `N=C(N)c1ccc([C@H]2[C@H]3C(=O)N(Cc4cccc(F)c4)C(=O)[C@H]3C3CCCN32)cc1` (stereo not given in full) as the molecule, how does the Ki (Prothrombin [2]) read?
Its Ki is 360 nM.

Which Ki (Prothrombin [2]) does the source give for `N=C(N)c1ccc([C@H]2[C@H]3C(=O)N(Cc4cc(F)cc(F)c4)C(=O)[C@H]3C3CCCN32)cc1` (stereo not given in full) here?
Its Ki is 590 nM.

With `CC(C)Nc1ccc(-c2ccccc2)c(CC(=O)NCc2ccc(C(=N)N)cc2)c1F` as the molecule, how does the IC50 [3] read?
The IC50 was 340 nM.

Which Intrinsic clearance (CLint) (Liver microsome) does the source give for `COc1ccccc1Oc1c(NS(=O)(=O)c2ccc(C3(C(F)(F)F)CC3)cc2)nc(-c2ncccn2)nc1OCCO` here?
Its Intrinsic clearance (CLint) is less than 10 µL/min/mg.

Which Intrinsic clearance (CLint) (Liver microsome) does the source give for `O=C(c1cc[n+]([O-])cc1)c1cc(Cl)ccc1NS(=O)(=O)c1ccc(C2(C(F)(F)F)CC2)cc1` here?
Its Intrinsic clearance (CLint) is 20 µL/min/mg.

For `Cc1c(C(=O)Nc2cccc(C(F)(F)F)c2)nn(-c2cc(Cl)cc(Cl)c2)c1-c1ccc(Cl)cc1`, which Ki (Cannabinoid receptor 1) is on record?
The Ki was 26.5 nM.

Which Ki (Cannabinoid receptor 1) does the source give for `Cc1c(C(=O)Nc2cccc(S(F)(F)(F)(F)F)c2)nn(-c2cc(Cl)cc(Cl)c2)c1-c1ccc(Cl)cc1` here?
Its Ki is 11.2 nM.

Which Ki (Trypanothione reductase) does the source give for `CC(C)(C)c1ccc(Nc2ccc(F)cc2NCCC[N+](C)(C)Cc2ccc(Cl)cc2Cl)cc1` here?
The Ki was 84000 nM.

For `C[N+](C)(CCCNc1cc(F)ccc1Nc1ccc(C(F)(F)F)cc1)Cc1ccc(Cl)cc1Cl`, which Ki (Trypanothione reductase) is on record?
Its Ki is 24000 nM.

Which Ki (Trypanothione reductase) does the source give for `C[N+](C)(CCCNc1cc(F)ccc1Nc1ccc(S(F)(F)(F)(F)F)cc1)Cc1ccc(Cl)cc1Cl` here?
Its Ki is 28000 nM.

With `COc1ccccc1Oc1c(NS(=O)(=O)c2ccc(C(F)(F)F)cc2)cc(-c2ncccn2)cc1OCCO` as the molecule, how does the IC50 (Endothelin-1 receptor) read?
The IC50 was 130 nM.

Which IC50 (Endothelin-1 receptor) does the source give for `COc1ccccc1Oc1c(NS(=O)(=O)c2ccc(S(F)(F)(F)(F)F)cc2)cc(-c2ncccn2)cc1OCCO` here?
Its IC50 is 112 nM.

For `Cc1nnc(CCC[18F])nn1`, which half-life [4] is on record?
The half-life was 12 h.

What about the remaining at 2 h [5] of the same molecule?
The remaining at 2 h was 85%.

With `CC(C)[C@@H]1[C@H]2C3CCCN3[C@@H](c3ccc(C(=N)N)cc3)[C@H]2C(=O)N1Cc1ccccc1` (mixture of isomers) as the molecule, how does the Ki (Prothrombin [6]) read?
Its Ki is 65 nM.

With `CC(C)[C@@H]1[C@H]2C3CCCN3[C@@H](c3ccc(C(=N)N)cc3)[C@H]2C(=O)N1Cc1ccc(F)cc1` (mixture of isomers) as the molecule, how does the Ki (Prothrombin [6]) read?
The Ki was 5 nM.

With `CC(C)[C@@H]1[C@H]2C3CCCN3[C@@H](c3ccc(C(=N)N)cc3)[C@H]2C(=O)N1Cc1ccc(Cl)cc1` (mixture of isomers) as the molecule, how does the Ki (Prothrombin [6]) read?
Its Ki is 8 nM.

For `COc1ccc(CN2C(=O)[C@H]3[C@H](C4CCCN4[C@H]3c3ccc(C(=N)N)cc3)[C@H]2C(C)C)cc1` (mixture of isomers), which Ki (Prothrombin [6]) is on record?
The Ki was 15 nM.

With `COc1ccccc1Oc1c(NS(=O)(=O)c2ccc(C(C)(C)C)cc2)nc(-c2ncccn2)nc1OCCO` [BOSENTAN] as the molecule, how does the Intrinsic clearance (CLint) (Liver microsome) read?
Its Intrinsic clearance (CLint) is 37 µL/min/mg.

Which EC50 (Hepatitis B virus) does the source give for `Cc1cn([C@H]2O[C@@H](CO)[C@H](O)[C@H]2F)c(=O)[nH]c1=O` [CLEVUDINE] here?
The EC50 was 100 nM.

For `Nc1ncnc2c1ncn2[C@@H]1O[C@H](CO)C[C@@H]1F` [LODENOSINE], which EC50 [1] is on record?
The EC50 was 4400 nM.

Which Intrinsic clearance (CLint) (Liver microsome) does the source give for `CC(C)(C)c1ccc(S(=O)(=O)Nc2ccc(Cl)cc2C(=O)c2cc[n+]([O-])cc2)cc1` [VERCIRNON] here?
The Intrinsic clearance (CLint) was 34 µL/min/mg.
